Values of other authors, collected in US20210353546A1, “DUAL RELEASE PHARMACEUTICAL COMPOSITIONS COMPRISING THE COMBINATION OF A BETA-3 ADRENORECEPTOR AGONIST AND A MUSCARINIC RECEPTOR ANTAGONIST” (Jubilant Pharma Holdings Inc., priority 2020, published 2021).
Read-outs that look alike come from different tables or passages of the source.

Key:
[1] = not given; remark: listed apart in the source

half-life (in vivo): approximately 50 hours
bioavailability, food effect (presence of food in the Gastrointestinal Tract): affected by the presence of food
Solubility ([1]; in dimethyl sulfoxide): soluble
Solubility ([1]; in methanol): soluble
Solubility ([1]; in water): practically insoluble
Structure (SMILES): Nc1nc(CC(=O)Nc2ccc(CCNC[C@H](O)c3ccccc3)cc2)cs1 [Mirabegron, 2-(2-aminothiazol-4-yl)-N-[4-(2-{[(2R)-2-hydroxy2-phenylethyl]amino}ethyl)phenyl] acetamide]
